Experimental data as given in ChEMBL document CHEMBL6127088, “Novel 2-aminothiazole analogues both as polymyxin E synergist and antimicrobial agent against multidrug-resistant Gram-positive bacteria” (2024).
In brackets after ≈: the same amount, converted by molar mass.

Experiments:
Type in all cases: functional
Staphylococcus aureus = test: Antimicrobial activity against methicillin/ofloxacin-resistant Staphylococcus aureus ATCC 43300 assessed as minimum inhibitory concentration incubated for 18 hrs by broth microdilution method
Acinetobacter baumannii [1] = test: Synergistic antimicrobial activity against Acinetobacter baumannii ATCC 19606 assessed as fractional inhibitory concentration index in presence of polymyxin E incubated for 18 to 20 hrs by chequerboard assay; conditions: time 18-20 hrs
Acinetobacter baumannii [2] = test: Antimicrobial activity against Acinetobacter baumannii ATCC 19606 incubated for 18 hrs by broth microdilution method
Bacillus subtilis = test: Antimicrobial activity against Bacillus subtilis ATCC 20678 incubated for 18 hrs by broth microdilution method
Enterococcus faecalis = test: Antimicrobial activity against vancomycin-resistant Enterococcus faecalis ATCC 51299 assessed as minimum inhibitory concentration incubated for 18 hrs by broth microdilution method

SMILES | MIC (Staphylococcus aureus) [µg/mL] | fractional inhibitory concentration index (FICI) (Acinetobacter baumannii [1]) | MIC (Acinetobacter baumannii [2]) [µg/mL] | MIC (Bacillus subtilis) [µg/mL] | MIC (Enterococcus faecalis) [µg/mL]
C/C(=N\NC1=NCCN1)c1csc(Nc2cc(F)cc(C(F)(F)F)c2)n1 | 16 (≈ 41.4 µM) | 0.75 | > 256 | 8 (≈ 20.7 µM) | 16 (≈ 41.4 µM)
Fc1cc(Nc2nc(-c3ccco3)cs2)cc(C(F)(F)F)c1 | 8 (≈ 24.4 µM) | 0.187 | > 256 | 4 (≈ 12.2 µM) | 8 (≈ 24.4 µM)
C/C(=N\NC(=N)N)c1csc(Nc2cc(F)cc(C(F)(F)F)c2)n1 | 8 (≈ 22.2 µM) | 0.75 | > 256 | 4 (≈ 11.1 µM) | 8 (≈ 22.2 µM)
COc1cc(Nc2nc(-c3ccc(F)cc3F)cs2)ccc1C(F)(F)F | 2 (≈ 5.18 µM) | 0.187 | > 256 | 2 (≈ 5.18 µM) | 2 (≈ 5.18 µM)
Oc1ccc(Nc2nc(-c3ccc(F)cc3F)cs2)cc1C(F)(F)F | 4 (≈ 10.7 µM) | 0.187 | > 256 | 2 (≈ 5.37 µM) | 2 (≈ 5.37 µM)
Fc1ccc(-c2csc(Nc3cc(Cl)cc(C(F)(F)F)c3)n2)c(F)c1 | 4 (≈ 10.2 µM) | 0.156 | > 256 | 4 (≈ 10.2 µM) | 2 (≈ 5.12 µM)
Fc1cc(Nc2nc(C3CC3)cs2)cc(C(F)(F)F)c1 | 32 (≈ 106 µM) | 0.187 | > 256 | 16 (≈ 52.9 µM) | 8 (≈ 26.5 µM)
O=C(Nc1ccccn1)c1csc(Nc2cc(F)cc(C(F)(F)F)c2)n1 | 256 (≈ 670 µM) | 0.281 | 64 (≈ 167 µM) | 256 (≈ 670 µM) | 256 (≈ 670 µM)
Oc1cc(Nc2nc(-c3ccc(F)cc3F)cs2)cc(C(F)(F)F)c1 | 1 (≈ 2.69 µM) | 0.25 | > 256 | 0.5 (≈ 1.34 µM) | 256 (≈ 688 µM)
Fc1ccc(-c2csc(Nc3c(Cl)cc(C(F)(F)F)cc3Cl)n2)c(F)c1 | 256 (≈ 602 µM) | 1.031 | > 256 | 256 (≈ 602 µM) | 256 (≈ 602 µM)
C/C(=N\Nc1ncccc1Cl)c1csc(Nc2cc(F)cc(C(F)(F)F)c2)n1 | 2 (≈ 4.65 µM) | 0.094 | 128 (≈ 298 µM) | 1 (≈ 2.33 µM) | 4 (≈ 9.31 µM)
Fc1cc(Nc2nc(-c3ccncc3)cs2)cc(C(F)(F)F)c1 | 64 (≈ 189 µM) | 1.031 | 128 (≈ 377 µM) | 256 (≈ 754 µM) | 256 (≈ 754 µM)
COc1ccc(Nc2nc(-c3ccc(F)cc3F)cs2)cc1C(F)(F)F | 8 (≈ 20.7 µM) | 0.094 | > 256 | 4 (≈ 10.4 µM) | 8 (≈ 20.7 µM)
Fc1ccc(-c2csc(Nc3ccc(Cl)c(C(F)(F)F)c3)n2)c(F)c1 | 1 (≈ 2.56 µM) | 0.094 | > 256 | 1 (≈ 2.56 µM) | 2 (≈ 5.12 µM)
Cn1cc(-c2csc(Nc3cc(F)cc(C(F)(F)F)c3)n2)cn1 | 256 (≈ 748 µM) | 0.281 | > 256 | 256 (≈ 748 µM) | 256 (≈ 748 µM)
Fc1ccc(-c2csc(Nc3ccc(C(F)(F)F)cc3Cl)n2)c(F)c1 | 256 (≈ 655 µM) | 1.031 | > 256 | 256 (≈ 655 µM) | 256 (≈ 655 µM)
C/C(=N\Nc1ccc(Cl)nn1)c1csc(Nc2cc(F)cc(C(F)(F)F)c2)n1 | 64 (≈ 149 µM) | 0.75 | > 256 | 256 (≈ 594 µM) | 256 (≈ 594 µM)
Cc1ccc(C(F)(F)F)cc1Nc1nc(-c2ccc(F)cc2F)cs1 | 256 (≈ 691 µM) | 0.093 | > 256 | 2 (≈ 5.4 µM) | 256 (≈ 691 µM)
Fc1ccc(-c2csc(Nc3ccccn3)n2)c(F)c1 | 256 (≈ 885 µM) | 1.031 | 64 (≈ 221 µM) | 256 (≈ 885 µM) | 256 (≈ 885 µM)
